Results on one molecule are retold here after paper PMC10284550, “Accelerating drug target inhibitor discovery with a deep generative foundation model” (Science Advances, 2023).

Entries after “also recorded” stand apart in the source; their conditions may differ.

This assay deals with SARS-CoV-2 spike glycoprotein ectodomain (Severe acute respiratory syndrome coronavirus 2, UniProt P0DTC2, K986P/R682G/R683S/R685S/V987P). The class given is binding. The note with it: pH 7.5.

With `C#CCN1CCC(CCNc2ccnc3ccccc23)CC1` [GEN727], the “Effect on stability of the spike (thermofluor)” value is reported as “appeared to reduce the speed of the transition of the spike to a less stable form; also recorded: somewhat destabilized the spike”.
